Measured values taken from patent publication US9107411B2, “Indolecarboxamides and benzimidazolecarboxamides as insecticides and acaricides” (BAYER INTELLECTUAL PROPERTY GMBH, priority 2011, dated 2015).
Read-outs that look alike come from different tables or passages of the source.

Columns and labels:
[1] = system: adult engorged Boophilus microplus females of the SP-resistant Parkhurst strain; experiment: Boophilus microplus test (DIP); format: in vivo; settings: application rate 100 ppm, after 7 days
Description: Boophilus microplus Test (DIP)
Test animals: adult engorged Boophilus microplus females of the SP-resistant Parkhurst strain
Solvent: dimethyl sulphoxide
10 mg of active ingredient are dissolved in 0.5 ml of dimethyl sulphoxide. For the purpose of preparing a suitable formulation, the active ingredient solution is diluted with water to the concentration desired in each case.
This active ingredient formulation is pipetted into tubes. 8-10 ticks are transferred into a further tube with holes. The tube is immersed into the active ingredient formulation, and all ticks are completely wetted. After the liquid has run out, the ticks are transferred onto filter discs in plastic dishes and stored in a climate-controlled room.
The activity is assessed after 7 days by laying of fertile eggs. Eggs whose fertility is not outwardly visible are stored in glass tubes in a climate-controlled cabinet until the larvae hatch. An efficacy of 100% means that none of the ticks has laid any fertile eggs.

Lucilia cuprina larvae = experiment: Lucilia cuprina test (LUCICU); format: in vivo; settings: application rate 100 ppm; treated horse meat; after 2 days
Outline: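 Mortality scored as percent of larvae killed 2 days after exposure. Horse meat was treated with the compound, formulated from DMSO stock diluted with water to the test concentration, and populated with roughly 20 larvae.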

Myzus persicae = experiment: Myzus test (MYZUPE spray treatment); format: in vivo; settings: application rate 100 g/ha; Chinese cabbage leaf discs; after 6 days
Description: Myzus Test (MYZUPE Spray Treatment) Solvent: 78 parts by weight of acetone • • 1.5 parts by weight of dimethylformamide Emulsifier: 0.5 part by weight of alkylaryl polyglycol ether To produce an appropriate active ingredient formulation, 1 part by weight of active ingredient is mixed with the stated amounts of solvent and emulsifier, and the concentrate is diluted with emulsifier-containing water to the desired concentration. Leaf discs of Chinese cabbage (Brassica pekinensis) infested by all stages of the green peach aphid (Myzus persicae) are sprayed with an active ingredient formulation of the desired concentration. After 6 days, the efficacy in % is determined. 100% means that all of the aphids have been killed; 0% means that none of the aphids have been killed.

Boophilus microplus = Boophilus microplus test (BOOPMI injection); format: in vivo; settings: application rate 20 μg/animal; injected into the abdomen; after 7 days
Outline: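 Read-out after 7 days is % efficacy, judged by fertile egg laying, with 100% meaning no fertile eggs from any tick. Compound was given by abdominal injection as a DMSO solution diluted to the desired concentration. Treated ticks were held in dishes in a climate-controlled room.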

logP (HPLC-MS) = format: physicochemical
Ctenocephalides felis = Ctenocephalides felis oral (CTECFE); format: in vivo; settings: application rate 100 ppm in citrated cattle blood; after 2 days
Outline: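 Readout is percent mortality after 2 days (0–100%) in roughly 20 unfed adult fleas. The fleas had imbibed citrated cattle blood dosed with compound through Parafilm, with the compound diluted from a DMSO concentrate.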

SMILES	efficacy (laying of fertile eggs) [1]	efficacy (kill in %) (Lucilia cuprina larvae)	efficacy in % (Myzus persicae)	efficacy (laying of fertile eggs) (Boophilus microplus)	chromatographic logP (logP (HPLC-MS); HPLC, reversed-phase column (C18), acidic range pH 2.7, acetonitrile (0.1% formic acid)/water gradient, 43° C., calibration with unbranched alkan-2-ones, read-out: log p)	chromatographic logP (logP (HPLC-MS); HPLC-MS)	efficacy (kill in %) (Ctenocephalides felis)	log p (logP (HPLC-MS); HPLC, reversed-phase column (C18), acidic range pH 2.7, acetonitrile (0.1% formic acid)/water gradient, 43° C., calibration with unbranched alkan-2-ones)
CCn1c(C(=O)NC(c2cccc(C(F)(F)F)c2)C(F)(F)F)cc2cc(C(=O)NC3(C#N)CC3)c(Cl)cc21 (centres unmarked) [Compound 7, 6-chloro-N^5-(1-cyanocyclopropyl)-1-ethyl-N^2-{2,2,2-trifluoro-1-[3-(trifluoromethyl)phenyl]ethyl}-1H-indole-2,5-dicarboxamide]	100%	100%	90%	100%	3.78	3.8	100%	
C#CCn1c(C(=O)NC(c2ccc(F)c(C(F)(F)F)c2)C(F)(F)F)cc2cc(C(=O)NC3CC3)c(Cl)cc21 (centres unmarked) [Compound 6]		100%		100%			100%	3.59
